# From US8217042B2, “Pyridopyrazines and their use as modulators of kinases” (Zentaris GmbH, priority 2005, dated 2012)
# Columns and labels:
# [1] = system: Hct116; experiment: XTT assay, anti-proliferative action, Hct116; format: cell-based; conditions: Homo sapiens, HCT-116, 45 h, Hct116 cells, 45 h incubation
# Protocol: (§1) The principle of this test is based on the intracellular reduction of the tetrazolium dye XTT (sodium 3′-[1-(phenylaminocarbonyl)-3,4-tetrazolium]bis(4-methoxy-6-nitro)benzenenesulphonic acid, Sigma) to a formazan dye by mitochondrial dehydrogenases.
# (§2) The dye is formed only by metabolically active cells; its photometrically measurable intensity is a quantitative indicator for the presence of living cells. The reduction in the dye formation as a result of incubation of the cells with substances serves as a parameter for the anti-proliferative action.
# (§3) The tumour cell lines (ATCC) were seeded in 96-well microtitre plates in a defined cell count (5000 cells/well for BxPC3 and Hct116; 10 000 cells/well for MDA MB468), and then incubated overnight in an incubator at 37° C., 5% CO2 and 95% air humidity. The test substances were made up as stock solutions (10 mM) in DMSO. […] The cell plates were then incubated for 45 h in an incubator at 37° C., 5% CO2 and 95% air humidity.
# (§4) For the detection reaction, the XTT substrate was admixed with PMS (N-methyldibenzopyrazine methylsulphate, Sigma) and added to the cells, so as to result in a final concentration of 325 μg of XTT/ml and 2.5 μg PMS/ml. The mixture was then incubated for 3 h at 37° C., 95% air humidity. Subsequently the formazan salt formed by cellular dehydrogenases was quantified at an absorption of 490 nm.
# (§5) The evaluation of the % inhibition values was done by means of the following formula from the values for the optical densities measured in each case at 490 nm:
# (§6) The controls were determined 8 times each, the substance samples twice each. 0% control contained no cells; the 100% control contained no test substance. The EC50 values were determined with GraphPadPrism.
# [2] = system: MDA-MB468; experiment: XTT assay, anti-proliferative action, MDA-MB468; format: cell-based; conditions: Homo sapiens, MDA-MB-468, 45 h, MDA-MB468 cells, 45 h incubation
# Protocol: as §1, §2, §3, §4, §5, §6
smiles,measurement,setting,value
"CCNC(=O)Nc1ccc2ncc(Nc3ccc(C)c(NS(C)(=O)=O)c3)nc2n1 [Compound 49, N-{5-[6-(3-Ethylurea)pyrido[2,3-b]pyrazin-3-ylamino]-2-methylphenyl}methanesulphonamide]",melting point,,247 to 250 °C
same,EC50,[1],~20 µM
same,EC50,[2],16 µM
